Assay results from patent US10051861B2, “N-arylamidine-substituted trifluoroethyl sulfide derivatives as acaricides and insecticides” (BAYER CROPSCIENCE AG, priority 2011, dated 2018).

Each compound was assayed on greenhouse red spider mite (Tetranychus urticae) (assay: Tetranychus urticae spray test, OP-resistant (TETRUR), bean leaf disks). Settings: Tetranychus urticae, foliar, 144 h, application rate 100 g/ha, after 6 days; read-out: efficacy (spider mites killed).
Format: in vivo
Description: After 6 days, the effect in % is determined.
For `Cc1cc(F)c(/N=C(\N)C2(Cl)CC2)cc1SCC(F)(F)F` [Ia-58], the pest or weed control at 100 g/ha was 100%.

Same assay, conditions: Tetranychus urticae, foliar, 144 h, application rate 500 g/ha, after 6 days; read-out: efficacy (spider mites killed)
With `Cc1cc(Cl)c(/N=C(\N)C(F)(F)C(F)(F)Cl)cc1SCC(F)(F)F` [Ia-30] the pest or weed control at 500 g/ha was 100%. `CN(C)/C(=N/c1cc(SCC(F)(F)F)c(Br)cc1Br)C(F)(F)F` [Ia-32] gave a pest or weed control at 500 g/ha of 100%. `CN/C(=N/c1cc(SCC(F)(F)F)c(Br)cc1Br)C(F)(F)F` [Ia-37] showed a pest or weed control at 500 g/ha of 100%. `Cc1cc(F)c(/N=C(\N)c2cccnc2)cc1SCC(F)(F)F` [Ia-40] was tested, and the pest or weed control at 500 g/ha was 100%. For `Cc1cc(F)c(/N=C(\N)c2ccncn2)cc1SCC(F)(F)F` [Ia-42], the pest or weed control at 500 g/ha was 100%. Work on `CN/C(=N/c1cc(SCC(F)(F)F)c(Br)cc1F)C(F)(F)F` [Ia-43] yielded a pest or weed control at 500 g/ha of 100%. With `Cc1cc(F)c(/N=C(\N)c2ccc(Cl)nc2)cc1SCC(F)(F)F` [Ia-46] the pest or weed control at 500 g/ha was 100%. In the case of `Cc1cc(F)c(/N=C(\N)C(F)(F)C(F)(F)Cl)cc1SCC(F)(F)F` [Ia-47], the pest or weed control at 500 g/ha is reported as 100%. With `Cc1cc(Cl)c(/N=C(\N)C(F)F)cc1SCC(F)(F)F` [Ia-48] the pest or weed control at 500 g/ha was 100%. `Cc1cc(Cl)c(SCC(F)(F)F)cc1/N=C(\N)c1ccccn1` [Ia-49] showed a pest or weed control at 500 g/ha of 100%. Compound `CCN(CC)/C(=N/c1cc(SCC(F)(F)F)c(C)cc1F)C(F)(F)F` [Ia-51] has a pest or weed control at 500 g/ha of 100%. `CN/C(=N/c1cc(SCC(F)(F)F)c(Cl)cc1F)C(F)(F)F` [Ia-52] showed a pest or weed control at 500 g/ha of 100%. `Cc1cc(Cl)c(SCC(F)(F)F)cc1/N=C(\N(C)C)C(F)(F)F` [Ia-53] showed a pest or weed control at 500 g/ha of 100%. In the case of `Cc1cc(F)c(/N=C(/NC2COC2)C(F)(F)F)cc1SCC(F)(F)F` [Ia-54], the pest or weed control at 500 g/ha is reported as 100%. `Cc1cc(F)c(/N=C2/CCCN2CC(F)F)cc1SCC(F)(F)F` [Ia-55] gave a pest or weed control at 500 g/ha of 100%. `Cc1cc(Cl)c(/N=C(\N)C(F)(F)F)cc1SCC(F)(F)F` [Ia-56] showed a pest or weed control at 500 g/ha of 100%. `CN(C)/C(=N\c1cc(SCC(F)(F)F)c(Cl)cc1Cl)C(F)(F)F` [Ia-57] gave a pest or weed control at 500 g/ha of 100%. `Cc1cc(F)c(/N=C(/c2cccnc2)N(C)C)cc1SCC(F)(F)F` [Ia-59] gave a pest or weed control at 500 g/ha of 90%. With `CN/C(=N\c1cc(SCC(F)(F)F)c(C)cc1F)c1ccc(Cl)cc1` [Ia-60] the pest or weed control at 500 g/ha was 100%. `CN/C(=N\c1cc(SCC(F)(F)F)c(C)cc1F)c1cccnc1` [Ia-61, N′-{2-Fluoro-4-methyl-5-[(2,2,2-trifluoroethyl)sulfanyl]phenyl}-N-methylpyridine-3-carboximidamide] was tested, and the pest or weed control at 500 g/ha was 100%. In the case of `CN1CCCC/C1=N\c1cc(SCC(F)(F)F)c(Cl)cc1Cl` [Ia-62], the pest or weed control at 500 g/ha is reported as 90%. Work on `Cc1cc(F)c(/N=C(\N)c2ccccn2)cc1SCC(F)(F)F` [Ia-63] yielded a pest or weed control at 500 g/ha of 90%. Work on `CN/C(=N\c1cc(SCC(F)(F)F)c(C)cc1Cl)c1cccnc1` [Ia-64] yielded a pest or weed control at 500 g/ha of 100%. `Cc1cc(C)c(SCC(F)(F)F)cc1/N=C(\N)C(F)(F)C(F)(F)Cl` [Ia-65] showed a pest or weed control at 500 g/ha of 100%. `Cc1cc(F)c(/N=C(\N)C2CC2(F)Cl)cc1SCC(F)(F)F` (stereo not shown) [Ia-67] showed a pest or weed control at 500 g/ha of 100%. Compound `CN1CCC/C1=N\c1cc(SCC(F)(F)F)c(Cl)cc1Cl` [Ia-68] has a pest or weed control at 500 g/ha of 90%. Work on `CN/C(=N\c1cc(SCC(F)(F)F)c(C)cc1F)c1ccccc1Cl` [Ia-69] yielded a pest or weed control at 500 g/ha of 100%. `Cc1cc(Cl)c(SCC(F)(F)F)cc1/N=C(\N)C(F)(F)C(F)(F)F` [Ia-70] gave a pest or weed control at 500 g/ha of 100%. Compound `Cc1cc(Cl)c(/N=C(/c2ccc(Cl)cc2)N(C)C)cc1SCC(F)(F)F` [Ia-71] has a pest or weed control at 500 g/ha of 100%. Compound `CN/C(=N\c1cc(SCC(F)(F)F)c(C)cc1F)c1ccccn1` [Ia-72] has a pest or weed control at 500 g/ha of 100%. Compound `Cc1cc(F)c(/N=C(\N)c2ccncc2)cc1SCC(F)(F)F` [Ia-73] has a pest or weed control at 500 g/ha of 100%. For `Cc1cc(Cl)c(SCC(F)(F)F)cc1/N=C(\N)C1(Cl)CC1` [Ia-74], the pest or weed control at 500 g/ha was 100%. Work on `Cc1cc(F)c(/N=C(\N)C2CC2(Cl)Cl)cc1SCC(F)(F)F` (stereo not shown) [Ia-75] yielded a pest or weed control at 500 g/ha of 100%. Compound `Cc1cc(Cl)c(SCC(F)(F)F)cc1/N=C(\N)C(F)(F)F` [Ia-76] has a pest or weed control at 500 g/ha of 100%. Compound `CN(C)/C(=N/c1ccc(Cl)c(SCC(F)(F)F)c1)C(F)(F)F` [Ia-77] has a pest or weed control at 500 g/ha of 100%. `Cc1cc(C)c(SCC(F)(F)F)cc1/N=C(\N)c1ccc(Cl)nc1` [Ia-81] showed a pest or weed control at 500 g/ha of 100%. Work on `COC/C(N)=N/c1cc(SCC(F)(F)F)c(C)cc1F` [Ia-82] yielded a pest or weed control at 500 g/ha of 100%. Work on `N/C(=N\c1cccc(SCC(F)(F)F)c1)c1ccccn1` [Ia-83] yielded a pest or weed control at 500 g/ha of 100%. Compound `Cc1cc(F)c(/N=C(/c2ccccc2Cl)N(C)C)cc1SCC(F)(F)F` [Ia-84] has a pest or weed control at 500 g/ha of 100%. `Cc1cc(F)c(/N=C(/NC2(C)CC2)C(F)(F)F)cc1SCC(F)(F)F` [Ia-85] showed a pest or weed control at 500 g/ha of 100%. `Cc1cc(F)c(/N=C(\N)c2ccc(C(F)(F)F)nc2)cc1SCC(F)(F)F` [Ia-86] showed a pest or weed control at 500 g/ha of 100%. `CN/C(=N\c1cc(SCC(F)(F)F)c(Cl)cc1C)C(F)(F)F` [Ia-87] gave a pest or weed control at 500 g/ha of 100%. `Cc1cc(F)c(/N=C2\CCCCN2C)cc1SCC(F)(F)F` [Ia-90] showed a pest or weed control at 500 g/ha of 80%. `CN/C(=N\c1cc(SCC(F)(F)F)c(C)cc1C)c1cccnc1` [Ia-91] showed a pest or weed control at 500 g/ha of 90%. For `Cc1cc(F)c(/N=C(/C2CC2)N(C)C)cc1SCC(F)(F)F` [Ia-93], the pest or weed control at 500 g/ha was 100%. `Cc1cc(F)c(/N=C(\N)C2CCC2)cc1SCC(F)(F)F` [Ia-94] showed a pest or weed control at 500 g/ha of 100%. For `Cc1cc(C)c(SCC(F)(F)F)cc1/N=C(\N)c1ccncc1` [Ia-95], the pest or weed control at 500 g/ha was 100%. Compound `CN/C(=N/c1cc(SCC(F)(F)F)c(F)cc1Cl)C(F)(F)F` [Ia-97] has a pest or weed control at 500 g/ha of 100%. For `Cc1cc(C)c(SCC(F)(F)F)cc1/N=C(\N)c1ccccn1` [Ia-98], the pest or weed control at 500 g/ha was 100%. `Cc1cc(F)c(/N=C(\N)C2CCCO2)cc1SCC(F)(F)F` (stereo not shown) [Ia-99] gave a pest or weed control at 500 g/ha of 100%. `N/C(=N\c1cccc(SCC(F)(F)F)c1)C1(Cl)CC1` [Ia-100] showed a pest or weed control at 500 g/ha of 100%. `N/C(=N\c1cccc(SCC(F)(F)F)c1)c1ccncc1` [Ia-101] was tested, and the pest or weed control at 500 g/ha was 90%. `Cc1cc(Cl)c(SCC(F)(F)F)cc1/N=C(\N)C1CC1` [Ia-102] was tested, and the pest or weed control at 500 g/ha was 90%. `N/C(=N\c1cccc(SCC(F)(F)F)c1)c1cccnc1` [Ia-104] was tested, and the pest or weed control at 500 g/ha was 90%. Compound `Cc1cc(C)c(SCC(F)(F)F)cc1/N=C1\CCCN1C` [Ia-105] has a pest or weed control at 500 g/ha of 90%. `Cc1cc(F)c(/N=C(\N(C)C)C2(C(C)C)CC2(Cl)Cl)cc1SCC(F)(F)F` (stereo not shown) [Ia-106] gave a pest or weed control at 500 g/ha of 90%. `N/C(=N\c1cccc(SCC(F)(F)F)c1)c1ccc(Cl)nc1` [Ia-107] gave a pest or weed control at 500 g/ha of 90%. `Cc1cc(F)c(/N=C(\NC2CC2)C2CC2)cc1SCC(F)(F)F` [Ia-108] was tested, and the pest or weed control at 500 g/ha was 80%.

Same assay, conditions: application rate 500 g/ha, after 6 days
`Cc1cc(F)c(N=C(N)C(F)(F)C(F)(F)C(F)(F)C(F)(F)C(F)(F)C(F)(F)C(F)(F)F)cc1SCC(F)(F)F` [Ia-06] was tested, and the “efficacy (spider mites killed)” value was 100%. `Cc1cc(F)c(N=C(N(Cc2ccccn2)Cc2ccccn2)C(F)(F)F)cc1SCC(F)(F)F` [Ia-08] was tested, and the “efficacy (spider mites killed)” value was 100%. `Cc1cc(F)c(N=C(NS(=O)(=O)C(F)(F)F)C(F)(F)F)cc1SCC(F)(F)F` [Ia-16] was tested, and the “efficacy (spider mites killed)” value was 100%. `CNC(=Nc1cc(SCC(F)(F)F)c(C)cc1Cl)C(F)(F)F` [Ia-20] was tested, and the “efficacy (spider mites killed)” value was 100%. In the case of `Cc1ccc(N=C(N)C(F)(F)F)cc1SCC(F)(F)F` [Ia-25], the “efficacy (spider mites killed)” value is reported as 100%.
